Read-outs that look alike come from different tables or passages of the source.
Columns and labels:
HIV-1 (IIIB) = assay: Antiviral (HIV) assay in MT-4 cells; type: cell-based; conditions: read-out: MT4 HIV EC50
Protocol: Example 9: Antiviral (HIV) Assay in MT-4 Cells
Compounds were tested in a high-throughput 384-well assay format for their ability to inhibit the replication of HIV-1 (IIIB) in MT-4 cells. Compounds were serially diluted (1:3) in DMSO on 384-well polypropylene plates and further diluted 200-fold into complete RPMI media (10% FBS, 1% P/S) using the Biotek Micro Flow and Labcyte ECHO acoustic dispenser. Each plate contained up to 8 test compounds, with negative (no drug) and positive (5 μM AZT) controls. MT-4 cells were pre-treated with 10 μL of either RPMI (mock-infected) or a fresh 1:250 dilution of HIV-1 IIIB concentrated virus stock. Infected and uninfected MT-4 cells were further diluted in complete RPMI media and added to each plate using a Micro Flow dispenser. After 5 days incubation in a humidified and temperature-controlled incubator (37° C.), Cell Titer Glo (Promega) was added to the assay plates and chemiluminescence read using an Envision plate-reader. EC50 values were defined as the compound concentration that causes a 50% decrease in luminescence signal and were calculated using a sigmoidal dose-response model to generate curve fits and are shown in Table 1.

[1] = Cytotoxicity assay in MT-4 cells; type: cell-based; conditions: human, uninfected MT-4 cells, read-out: MT4 CC50
Protocol: Example 10: Cytotoxicity Assay in MT-4 Cells
Assays were performed as described in Example 9 except uninfected MT-4 cells were added to each well containing test compound. In addition, 10 μM puromycin was added to the last column of each assay plate to assess a base level of cytotoxicity.

[2] = Rhesus pharmacokinetic study, intravenous compound 7 (plasma and PBMC); conditions: for Intracellular concentration in PBMC: LOQ 2.5 μM compound 7, 0.63 μM triphosphate
Protocol: Male Indian Origin Rhesus Monkeys were used for the pharmacokinetic studies. Studies were conducted under a protocol approved by IACUC. […] The intravenous dose was administered as an approximately 30-minute infusion, and after dose administration the dose apparatus was flushed with approximately 1 mL saline before removal from the animal. Food was returned 4 hours after dosing. […] The K2EDTA tubes were kept chilled at approximately 5° C. until centrifugation (4° C., 5 minutes, 2000×g) to collect plasma. Centrifugation began within 1 hour of collection. Plasma samples were harvested, placed in micronic tubes, and maintained on dry ice prior to storage at −70° C. until analysis by LC-MS/MS. […] The sodium citrate tubes were then gently inverted 3-4 times and stored upright at ambient temperature until centrifugation to collect PBMCs. Centrifugation began as soon as possible following collection, within 6 hours after collection. The PBMCs were separated by centrifugation (30 minutes at 1500×g-1800×g, 18-20° C.), washed once with ice cold 0.9% NaCl and treated with red blood cell lysis buffer (3.5 g ammonium chloride and 0.036 g ammonium carbonate in 500 mL ultrapure water, prepared before first blood collection) for 10 minutes at ambient temperature. Subsequently the cells were washed twice with ice cold 0.9% NaCl, the cell pellet resuspended in ice cold RIPA buffer (fortified with Pierce protease ad phosphatase inhibitor tablet), snap frozen in liquid nitrogen, and maintained at −70° C. until analysis by LC-MS/MS.

[3] = Rhesus pharmacokinetic study, oral compound 7 (plasma and PBMC); conditions: for Intracellular concentration in PBMC: LOQ 0.16 μM compound 7, 0.04 μM triphosphate
Protocol: The oral dose was administered via oral gavage, and after dose administration the dose apparatus was flushed with approximately 10 mL water before removal from the animal. Food was returned 4 hours after dosing. […] The K2EDTA tubes were kept chilled at approximately 5° C. until centrifugation (4° C., 5 minutes, 2000×g) to collect plasma. Centrifugation began within 1 hour of collection. Plasma samples were harvested, placed in micronic tubes, and maintained on dry ice prior to storage at −70° C. until analysis by LC-MS/MS. […] The sodium citrate tubes were then gently inverted 3-4 times and stored upright at ambient temperature until centrifugation to collect PBMCs. Centrifugation began as soon as possible following collection, within 6 hours after collection. The PBMCs were separated by centrifugation (30 minutes at 1500×g-1800×g, 18-20° C.), washed once with ice cold 0.9% NaCl and treated with red blood cell lysis buffer (3.5 g ammonium chloride and 0.036 g ammonium carbonate in 500 mL ultrapure water, prepared before first blood collection) for 10 minutes at ambient temperature. Subsequently, the cells were washed twice with ice cold 0.9% NaCl and the cell pellet maintained at −70° C. until analysis by LC-MS/MS.

[4] = Human immunodeficiency virus 1, IIIB, MT4, 120 h
[5] = Human immunodeficiency virus 1, MT4, 120 h, HIV-1 IIIB in MT-4 cells, 5 days, Cell Titer Glo
[6] = male, Indian Origin, rhesus monkey, plasma, iv, 1 mg/kg
[7] = male, Indian Origin, rhesus monkey, peripheral blood mononuclear cells (PBMC), po, 7.5 mg/kg
[8] = male, Indian Origin, rhesus monkey, plasma, po, 7.5 mg/kg

With C#C[C@]1(CO[P@@](=O)(N[C@@H](C)C(=O)OCC(CC)CC)Oc2ccccc2)S[C@@H](n2cc(F)c(N)nc2=O)C[C@@H]1O [Compound 9, 2-Ethylbutyl ((S)-(((2R,3S,5R)-5-(4-amino-5-fluoro-2-oxopyrimidin-1(2H)-yl)-2-ethynyl-3-hydroxytetrahydrothiophen-2-yl)methoxy)(phenoxy)phosphoryl)-L-alaninate] the EC50 (HIV-1 (IIIB); [4]) was 0.145 µM and the CC50 at 5 days [1] was 23.2 µM.
In the case of C#C[C@]1(CO[P@@](=O)(N[C@@H](C)C(=O)OCC(CC)CC)Oc2ccccc2)S[C@@H](n2cnc3c(N)nc(N)nc32)C[C@@H]1O [Compound 6, 2-Ethylbutyl ((S)-(((2R,3S,5R)-5-(2,6-diamino-9H-purin-9-yl)-2-ethynyl-3-hydroxytetrahydrothiophen-2-yl)methoxy)(phenoxy)phosphoryl)-L-alaninate], the EC50 (HIV-1 (IIIB); [4]) is reported as 0.026 µM and the CC50 at 5 days [1] is reported as over 25 µM.
C#C[C@]1(CO)S[C@@H](n2cnc3nc(N)nc(OCC)c32)C[C@@H]1O [Compound 5, (2R,3S,5R)-5-(2-Amino-6-ethoxy-7H-purin-7-yl)-2-ethynyl-2-(hydroxymethyl)tetrahydrothiophen-3-ol] gave an EC50 (HIV-1 (IIIB); [5]) of over 5 µM and a CC50 at 5 days [1] of over 25 µM.
Molecule C#C[C@]1(CO)S[C@@H](n2cnc3c(NC4CC4)nc(N)nc32)C[C@@H]1O [Compound 2, (2R,3S,5R)-5-(2-Amino-6-(cyclopropylamino)-9H-purin-9-yl)-2-ethynyl-2-(hydroxymethyl)tetrahydrothiophen-3-ol] has an EC50 (HIV-1 (IIIB); [5]) of 4.52 µM and a CC50 at 5 days [1] of over 25 µM.
C#C[C@]1(CO)S[C@@H](n2cnc3nc(N)nc(NC4CC4)c32)C[C@@H]1O [Compound 3, (2R,3S,5R)-5-(2-Amino-6-(cyclopropylamino)-7H-purin-7-yl)-2-ethynyl-2-(hydroxymethyl)tetrahydrothiophen-3-ol] gave an EC50 (HIV-1 (IIIB); [5]) of over 25 µM and a CC50 at 5 days [1] of over 25 µM.
Molecule C#C[C@]1(CO)S[C@@H](n2cnc3c(N)nc(N)nc32)C[C@@H]1O [Compound 1, (2R,3S,5R)-5-(2,6-Diamino-9H-purin-9-yl)-2-ethynyl-2-(hydroxymethyl)tetrahydrothiophen-3-ol] has an EC50 (HIV-1 (IIIB); [5]) of 0.683 µM and a CC50 at 5 days [1] of over 25 µM.
C#C[C@]1(CO)S[C@@H](n2cnc3c(OCC)nc(N)nc32)C[C@@H]1O [Compound 4, (2R,3S,5R)-5-(2-Amino-6-ethoxy-9H-purin-9-yl)-2-ethynyl-2-(hydroxymethyl)tetrahydrothiophen-3-ol] showed an EC50 (HIV-1 (IIIB); [5]) of 0.477 µM and a CC50 at 5 days [1] of 23 µM.
In the case of C#C[C@]1(CO)S[C@@H](n2cc(F)c(N)nc2=O)C[C@@H]1O [Compound 7, 4-Amino-1-((2R,4S,5R)-5-ethynyl-4-hydroxy-5-(hydroxymethyl)tetrahydrothiophen-2-yl)-5-fluoropyrimidin-2(1H)-one], the EC50 (HIV-1 (IIIB); [5]) is reported as 0.018 µM, the CC50 at 5 days [1] is reported as 24 µM and the “Intracellular concentration in PBMC” value ([2]; 12 hr after intravenous 1 mg/kg compound 7) is reported as “BLQ”. For the same molecule, the “Intracellular concentration in PBMC” value ([2]; 24 hr after intravenous 1 mg/kg compound 7) was “BLQ”, the “Intracellular concentration in PBMC” value ([2]; 48 hr after intravenous 1 mg/kg compound 7) was “BLQ” and the “Intracellular concentration in PBMC” value ([2]; 72 hr after intravenous 1 mg/kg compound 7) was “BLQ”. The “Intracellular concentration in PBMC” value ([2]; 144 hr after intravenous 1 mg/kg compound 7) was “BLQ”, the “Intracellular concentration in PBMC” value ([2]; 168 hr after intravenous 1 mg/kg compound 7) was “BLQ” and the half-life ([2]; male, Indian Origin, rhesus monkey, in vivo, iv, 1 mg/kg) was 50 ± 26.4 h. The AUC(0-t) [2, 6] was 14.6 ± 3.01 µM·h, the Cmax [2, 6] was 3770 ± 310 nM and the “Intracellular concentration in PBMC” value ([3]; 48 hr after oral 7.5 mg/kg compound 7) was “BLQ”. The “Intracellular concentration in PBMC” value ([3]; 72 hr after oral 7.5 mg/kg compound 7) was “BLQ”, the “Intracellular concentration in PBMC” value ([3]; 120 hr after oral 7.5 mg/kg compound 7) was “BLQ” and the “Intracellular concentration in PBMC” value ([3]; 168 hr after oral 7.5 mg/kg compound 7) was “BLQ”. The half-life ([3]; male, Indian Origin, rhesus monkey, in vivo, po, 7.5 mg/kg) was 25.1 ± 16.3 h, the concentration at 12 h [3, 7] was 560 ± 30 nM and the concentration at 24 h [3, 7] was 370 ± 200 nM. For the same molecule, the AUC(0-t) [3, 8] was 20.1 ± 14.9 µM·h and the Cmax [3, 8] was 1500 ± 350 nM.

Reference: patent publication US20240226130A1, “4'-THIONUCLEOSIDE ANALOGUES AND THEIR PHARMACEUTICAL USE” (Gilead Sciences, Inc., priority 2022, published 2024)
